{"source": "patent US20220281848A1", "about": "“PYRAZOLE-SUBSTITUTED PYRROLIDINONES AS HERBICIDES” (FMC Corporation, priority 2019, published 2022)", "system": "plants", "assay": "Test D pre-emergence, other plants of Tables D1 and D3", "assay_type": "in vivo", "details": "for damage to plant (100=total damage to plant; 0=no damage to plant), SORVU: preemergent, 20 DAA; for damage to plant, ALOMY / damage to plant, AVEFA / damage to plant, BEAVA / damage to plant, BROTE / damage to plant, BRSNN / damage to plant, CHEAL / damage to plant, GALAP / damage to plant, HORVW / damage to plant, KCHSC / damage to plant, LOLPE / damage to plant, POAAN / damage to plant, POLCO / damage to plant, SINAR / damage to plant, STEME / damage to plant, VERPE: pre-emergence, 100=total damage, 0=no damage", "method_in_brief": "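Seeds treated with herbicide safener; sown in soil; glasshouse, 16 h light, 65% humidity. Sprayed day 1 (pre) or ~day 12 (post). Spray in 0.2% v/v adjuvant. Scored 0–100 damage: 20 DAA pre, 15 d post.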"}
{"smiles": "CCn1nc([C@@H]2CN(C)C(=O)[C@H]2C(=O)Nc2cccc(F)c2F)c2cccc(F)c21", "note": "[Compound 14]", "values": [{"measurement": "damage to plant (100=total damage to plant; 0=no damage to plant), SORVU", "setting": "rate 130", "result": 0}, {"measurement": "damage to plant (100=total damage to plant; 0=no damage to plant), SORVU", "setting": "rate 250", "result": 0}, {"measurement": "damage to plant (100=total damage to plant; 0=no damage to plant), SORVU", "setting": "rate 500", "result": 30}, {"measurement": "damage to plant, ALOMY", "setting": "rate 15, 20 DAA", "result": 0}, {"measurement": "damage to plant, AVEFA", "setting": "rate 15, 20 DAA", "result": 0}, {"measurement": "damage to plant, BEAVA", "setting": "rate 15, 20 DAA", "result": 0}, {"measurement": "damage to plant, BROTE", "setting": "rate 15, 20 DAA", "result": 0}, {"measurement": "damage to plant, BRSNN", "setting": "rate 15, 20 DAA", "result": 0}, {"measurement": "damage to plant, CHEAL", "setting": "rate 15, 20 DAA", "result": 0}, {"measurement": "damage to plant, GALAP", "setting": "rate 15, 20 DAA", "result": 0}, {"measurement": "damage to plant, HORVW", "setting": "rate 15, 20 DAA", "result": 0}, {"measurement": "damage to plant, KCHSC", "setting": "rate 15, 20 DAA", "result": 0}, {"measurement": "damage to plant, LOLPE", "setting": "rate 15, 20 DAA", "result": 0}, {"measurement": "damage to plant, POAAN", "setting": "rate 15, 20 DAA", "result": 0}, {"measurement": "damage to plant, POLCO", "setting": "rate 15, 20 DAA", "result": 0}, {"measurement": "damage to plant, SINAR", "setting": "rate 15, 20 DAA", "result": 0}, {"measurement": "damage to plant, STEME", "setting": "rate 15, 20 DAA", "result": 0}, {"measurement": "damage to plant, VERPE", "setting": "rate 15, 20 DAA", "result": 0}, {"measurement": "damage to plant, ALOMY", "setting": "rate 30, 20 DAA", "result": 0}, {"measurement": "damage to plant, AVEFA", "setting": "rate 30, 20 DAA", "result": 0}, {"measurement": "damage to plant, BEAVA", "setting": "rate 30, 20 DAA", "result": 0}, {"measurement": "damage to plant, BROTE", "setting": "rate 30, 20 DAA", "result": 0}, {"measurement": "damage to plant, BRSNN", "setting": "rate 30, 20 DAA", "result": 0}, {"measurement": "damage to plant, CHEAL", "setting": "rate 30, 20 DAA", "result": 0}, {"measurement": "damage to plant, GALAP", "setting": "rate 30, 20 DAA", "result": 0}, {"measurement": "damage to plant, HORVW", "setting": "rate 30, 20 DAA", "result": 0}, {"measurement": "damage to plant, KCHSC", "setting": "rate 30, 20 DAA", "result": 0}, {"measurement": "damage to plant, LOLPE", "setting": "rate 30, 20 DAA", "result": 0}, {"measurement": "damage to plant, POAAN", "setting": "rate 30, 20 DAA", "result": 0}, {"measurement": "damage to plant, POLCO", "setting": "rate 30, 20 DAA", "result": 0}, {"measurement": "damage to plant, SINAR", "setting": "rate 30, 20 DAA", "result": 0}, {"measurement": "damage to plant, STEME", "setting": "rate 30, 20 DAA", "result": 0}, {"measurement": "damage to plant, VERPE", "setting": "rate 30, 20 DAA", "result": 0}, {"measurement": "damage to plant, ALOMY", "setting": "rate 60, 20 DAA", "result": 0}, {"measurement": "damage to plant, AVEFA", "setting": "rate 60, 20 DAA", "result": 0}, {"measurement": "damage to plant, BEAVA", "setting": "rate 60, 20 DAA", "result": 0}, {"measurement": "damage to plant, BROTE", "setting": "rate 60, 20 DAA", "result": 0}, {"measurement": "damage to plant, BRSNN", "setting": "rate 60, 20 DAA", "result": 0}, {"measurement": "damage to plant, CHEAL", "setting": "rate 60, 20 DAA", "result": 0}, {"measurement": "damage to plant, GALAP", "setting": "rate 60, 20 DAA", "result": 0}, {"measurement": "damage to plant, HORVW", "setting": "rate 60, 20 DAA", "result": 0}, {"measurement": "damage to plant, KCHSC", "setting": "rate 60, 20 DAA", "result": 0}, {"measurement": "damage to plant, LOLPE", "setting": "rate 60, 20 DAA", "result": 30}, {"measurement": "damage to plant, POAAN", "setting": "rate 60, 20 DAA", "result": 0}, {"measurement": "damage to plant, POLCO", "setting": "rate 60, 20 DAA", "result": 10}, {"measurement": "damage to plant, SINAR", "setting": "rate 60, 20 DAA", "result": 0}, {"measurement": "damage to plant, STEME", "setting": "rate 60, 20 DAA", "result": 0}, {"measurement": "damage to plant, VERPE", "setting": "rate 60, 20 DAA", "result": 0}, {"measurement": "damage to plant, ALOMY", "setting": "rate 130, 20 DAA", "result": 0}, {"measurement": "damage to plant, AVEFA", "setting": "rate 130, 20 DAA", "result": 10}, {"measurement": "damage to plant, BEAVA", "setting": "rate 130, 20 DAA", "result": 0}, {"measurement": "damage to plant, BROTE", "setting": "rate 130, 20 DAA", "result": 0}, {"measurement": "damage to plant, BRSNN", "setting": "rate 130, 20 DAA", "result": 0}, {"measurement": "damage to plant, CHEAL", "setting": "rate 130, 20 DAA", "result": 0}, {"measurement": "damage to plant, GALAP", "setting": "rate 130, 20 DAA", "result": 0}, {"measurement": "damage to plant, HORVW", "setting": "rate 130, 20 DAA", "result": 10}, {"measurement": "damage to plant, KCHSC", "setting": "rate 130, 20 DAA", "result": 0}, {"measurement": "damage to plant, LOLPE", "setting": "rate 130, 20 DAA", "result": 40}, {"measurement": "damage to plant, POAAN", "setting": "rate 130, 20 DAA", "result": 20}, {"measurement": "damage to plant, POLCO", "setting": "rate 130, 20 DAA", "result": 20}, {"measurement": "damage to plant, SINAR", "setting": "rate 130, 20 DAA", "result": 0}, {"measurement": "damage to plant, STEME", "setting": "rate 130, 20 DAA", "result": 0}, {"measurement": "damage to plant, VERPE", "setting": "rate 130, 20 DAA", "result": 0}, {"measurement": "damage to plant, ALOMY", "setting": "rate 250, 20 DAA", "result": 10}, {"measurement": "damage to plant, AVEFA", "setting": "rate 250, 20 DAA", "result": 30}, {"measurement": "damage to plant, BEAVA", "setting": "rate 250, 20 DAA", "result": 0}, {"measurement": "damage to plant, BROTE", "setting": "rate 250, 20 DAA", "result": 10}, {"measurement": "damage to plant, BRSNN", "setting": "rate 250, 20 DAA", "result": 0}, {"measurement": "damage to plant, CHEAL", "setting": "rate 250, 20 DAA", "result": 0}, {"measurement": "damage to plant, GALAP", "setting": "rate 250, 20 DAA", "result": 0}, {"measurement": "damage to plant, HORVW", "setting": "rate 250, 20 DAA", "result": 60}, {"measurement": "damage to plant, KCHSC", "setting": "rate 250, 20 DAA", "result": 0}, {"measurement": "damage to plant, LOLPE", "setting": "rate 250, 20 DAA", "result": 50}, {"measurement": "damage to plant, POAAN", "setting": "rate 250, 20 DAA", "result": 80}, {"measurement": "damage to plant, POLCO", "setting": "rate 250, 20 DAA", "result": 50}, {"measurement": "damage to plant, SINAR", "setting": "rate 250, 20 DAA", "result": 0}, {"measurement": "damage to plant, STEME", "setting": "rate 250, 20 DAA", "result": 10}, {"measurement": "damage to plant, VERPE", "setting": "rate 250, 20 DAA", "result": 0}, {"measurement": "damage to plant, ALOMY", "setting": "rate 500, 20 DAA", "result": 70}, {"measurement": "damage to plant, AVEFA", "setting": "rate 500, 20 DAA", "result": 60}, {"measurement": "damage to plant, BEAVA", "setting": "rate 500, 20 DAA", "result": 10}, {"measurement": "damage to plant, BROTE", "setting": "rate 500, 20 DAA", "result": 50}, {"measurement": "damage to plant, BRSNN", "setting": "rate 500, 20 DAA", "result": 10}, {"measurement": "damage to plant, CHEAL", "setting": "rate 500, 20 DAA", "result": 50}, {"measurement": "damage to plant, GALAP", "setting": "rate 500, 20 DAA", "result": 0}, {"measurement": "damage to plant, HORVW", "setting": "rate 500, 20 DAA", "result": 90}, {"measurement": "damage to plant, KCHSC", "setting": "rate 500, 20 DAA", "result": 0}, {"measurement": "damage to plant, LOLPE", "setting": "rate 500, 20 DAA", "result": 80}, {"measurement": "damage to plant, POAAN", "setting": "rate 500, 20 DAA", "result": 80}, {"measurement": "damage to plant, POLCO", "setting": "rate 500, 20 DAA", "result": 80}, {"measurement": "damage to plant, SINAR", "setting": "rate 500, 20 DAA", "result": 0}, {"measurement": "damage to plant, STEME", "setting": "rate 500, 20 DAA", "result": 60}, {"measurement": "damage to plant, VERPE", "setting": "rate 500, 20 DAA", "result": 20}]}
